Source: the supplement of paper PMC10331698
± gives the standard deviation of the averaged measurements.

Tests used:
Assay in all cases: level (log10 ratio to DMSO vehicle control); higher = higher biomarker level / cell amount than vehicle control
[1] = compound: O=C(O)C=C(C(F)(F)F)C(F)(F)F [3,3-Bis(trifluoromethyl)-2-propenoic acid] (in DMSO)
Description: (§1)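 BioMAP Diversity Plus panel of 12 human primary cell co-culture systems (3C, 4H, LPS, SAg, BT, BF4T, BE3C, CASM3C, HDF3CGF, KF3CT, MyoF, Mphg). Compounds were added 1 h before stimulation and left for 24 h (MyoF 48 h; BT 72 h for soluble read-outs or 6 d for IgG). Biomarkers were read by ELISA, cytotoxicity by SRB, PBMC viability and proliferation by Alamar Blue. Each well value was divided by the mean of 8 DMSO control wells on the same plate and log10 transformed; duplicate blinded samples were tested at 4 concentrations.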

[2] = compound: O=C(O)C(F)(F)C(F)(F)C(F)(F)OC(F)(F)F [Perfluoro(4-methoxybutanoic) acid] (in DMSO)
Description: as §1

[3] = compound: CO[Si](C)(CCC(F)(F)C(F)(F)C(F)(F)C(F)(F)C(F)(F)C(F)(F)F)OC [Dimethoxymethyl((perfluorohexyl)ethyl)silane] (in DMSO)
Description: as §1

[4] = compound: O=C(O)C(F)(OC(F)(F)C(F)(F)C(F)(F)F)C(F)(F)F [Ammonium perfluoro-2-methyl-3-oxahexanoate] (in Water)
Description: as §1

[5] = compound: CN(C(=O)C(F)(F)C(F)(F)C(F)(F)F)[Si](C)(C)C [N-Methyl-N-trimethylsilylheptafluorobutyramide] (in DMSO)
Description: as §1

[6] = compound: O=S(=O)(O)CCC(F)(F)C(F)(F)C(F)(F)C(F)(F)C(F)(F)C(F)(F)C(F)(F)C(F)(F)F [8:2 Fluorotelomer sulfonic acid] (in DMSO)
Description: as §1

[7] = compound: OCC(F)(F)C(F)(F)C(F)(F)C(F)(F)C(F)(F)C(F)(F)CO [1H,1H,8H,8H-Perfluorooctane-1,8-diol] (in DMSO)
Description: as §1

| Test System | level (log10) ([1]; 6700 nM) | level (log10) ([1]; 20000 nM) | level (log10) ([1]; 60000 nM) | level (log10) ([2]; 6700 nM) | level (log10) ([2]; 20000 nM) | level (log10) ([2]; 60000 nM) | level (log10) ([3]; 6700 nM) | level (log10) ([3]; 20000 nM) | level (log10) ([4]; 6700 nM) | level (log10) ([4]; 20000 nM) | level (log10) ([4]; 60000 nM) | level (log10) ([5]; 6700 nM) | level (log10) ([5]; 20000 nM) | level (log10) ([5]; 60000 nM) | level (log10) ([6]; 6700 nM) | level (log10) ([6]; 20000 nM) | level (log10) ([6]; 60000 nM) | level (log10) ([7]; 6700 nM) | level (log10) ([7]; 20000 nM) | level (log10) ([7]; 60000 nM) |
| --- | --- | --- | --- | --- | --- | --- | --- | --- | --- | --- | --- | --- | --- | --- | --- | --- | --- | --- | --- | --- |
| BF4T:CD106/VCAM-1 | -0.0755 ± 0.0064 | -0.0945 ± 0.005 | -0.047 ± 0.067 | -0.005 ± 0.023 | -0.012 ± 0.0071 | -0.0015 ± 0.04 | 0.018 ± 0.0014 | -0.003 ± 0.02 | -0.0735 ± 0.039 | -0.018 ± 0.0085 | -0.008 ± 0.0014 | 0.0095 ± 0.025 | 0.0315 ± 0.015 | 0.0035 ± 0.026 | 0.0035 ± 0.035 | -0.0285 ± 0.03 | -0.041 ± 0.0028 | -0.006 ± 0.014 | 0.001 ± 0.0014 | -0.006 ± 0.0057 |
| BF4T:CXCL8/IL-8 | -0.0135 ± 0.022 | -0.022 ± 0.0099 | 0.0345 ± 0.05 | 0.04 ± 0.069 | 0.014 ± 0.086 | 0.0245 ± 0.028 | -0.005 ± 0.027 | 0.012 ± 0.018 | -0.0135 ± 0.036 | 0.0295 ± 0.028 | 0.0255 ± 0.03 | -0.008 ± 0.024 | -0.0025 ± 0.018 | 0.0025 ± 0.019 | 0.0015 ± 0.0035 | -0.0105 ± 0.0078 | -0.0055 ± 0.0078 | -0.003 ± 0.0042 | -0.0095 ± 0.0064 | 0.001 ± 0.0071 |
| BF4T:IL-1alpha | -0.009 ± 0.0057 | -0.003 ± 0.0085 | -0.0065 ± 0.035 | 0.007 ± 0.013 | 0.008 ± 0.028 | -0.003 ± 0.023 | -0.0245 ± 0.0078 | 0.014 ± 0.035 | 0.018 ± 0.03 | 0.0055 ± 0.036 | -0.0085 ± 0.021 | -0.015 ± 0.016 | -0.0135 ± 0.016 | 0.015 ± 0.042 | 0.004 ± 0.016 | -0.01 ± 0.014 | 0.0065 ± 0.018 | -0.0105 ± 0.011 | -0.0135 ± 0.013 | 0.0145 ± 0.029 |
| BF4T:Keratin 8/18 | -0.012 ± 0.0085 | -0.012 ± 0.0028 | 0.007 ± 0.014 | 0.0035 ± 0.032 | 0.001 ± 0.05 | 0.013 ± 0.045 | 0.029 ± 0.034 | 0.006 ± 0.016 | -0.0205 ± 0.0078 | -0.008 ± 0.035 | -0.022 ± 0.014 | -0.0105 ± 0.052 | 0.0115 ± 0.03 | 0.013 ± 0.017 | 0.004 ± 0.0099 | -0.0005 ± 0.018 | 0.0245 ± 0.0078 | -0.0005 ± 0.0021 | 0.021 ± 0.0014 | -0.003 ± 0.0042 |
| BF4T:MMP-1 | -0.006 ± 0.018 | 0 ± 0.0042 | 0.0125 ± 0.021 | 0.0065 ± 0.029 | 0.0015 ± 0.032 | 0.0095 ± 0.011 | -0.01 ± 0.054 | 0.0085 ± 0.023 | 0.031 ± 0.02 | 0.0105 ± 0.023 | 0.029 ± 0.011 | -0.0105 ± 0.04 | -0.0105 ± 0.054 | 0.0005 ± 0.018 | 0.005 ± 0.0085 | -0.002 ± 0.0071 | 0.0035 ± 0.0021 | -0.0055 ± 0.0064 | -0.0135 ± 0.022 | 0.019 ± 0.03 |
| BF4T:MMP-3 | -0.0165 ± 0.00071 | -0.0105 ± 0.0064 | 0.0205 ± 0.037 | 0.0015 ± 0.012 | -0.008 ± 0.014 | 0.0155 ± 0.0078 | 0.0005 ± 0.0035 | -0.015 ± 0.0099 | 0.0335 ± 0.047 | 0.018 ± 0.0057 | 0.048 ± 0.014 | -0.016 ± 0.031 | -0.008 ± 0.011 | 0 ± 0.017 | -0.0095 ± 0.043 | 0.027 ± 0.034 | 0.0755 ± 0.0078 | -0.013 ± 0.0042 | 0.018 ± 0.013 | -0.0095 ± 0.0021 |
| BF4T:MMP-9 | -0.0155 ± 0.0021 | -0.0185 ± 0.018 | -0.004 ± 0.021 | 0.0095 ± 0.032 | 0.006 ± 0.034 | 0.027 ± 0.028 | -0.0065 ± 0.037 | -0.001 ± 0.017 | 0.0275 ± 0.005 | 0.047 ± 0.017 | 0.075 ± 0.013 | -0.0305 ± 0.064 | -0.012 ± 0.033 | 0.0095 ± 0.023 | 0.0065 ± 0.015 | -0.003 ± 0.0014 | -0.0215 ± 0.005 | -0.019 ± 0.03 | -0.008 ± 0.011 | 0.0075 ± 0.0092 |
| BF4T:PAI-I | 0.0055 ± 0.0021 | 0.001 ± 0.0042 | -0.0055 ± 0.021 | 0.0015 ± 0.011 | -0.008 ± 0.014 | 0.014 ± 0.035 | -0.008 ± 0.013 | -0.0145 ± 0.0021 | -0.004 ± 0.0028 | 0.001 ± 0.0042 | 0.005 ± 0.0028 | 0.0055 ± 0.04 | -0.007 ± 0.017 | 0.0025 ± 0.0064 | 0.005 ± 0.0099 | 0.002 ± 0.011 | 0.009 ± 0.0042 | 0.018 ± 0.013 | 0 ± 0.0099 | -0.0065 ± 0.011 |
| BF4T:SRB | 0.0015 ± 0.005 | -0.006 ± 0.011 | 0.0045 ± 0.0092 | -0.0105 ± 0.00071 | -0.0135 ± 0.0064 | -0.0105 ± 0.0035 | -0.0055 ± 0.005 | -0.0045 ± 0.005 | -0.003 ± 0.013 | 0 ± 0.0014 | 0.0135 ± 0.022 | -0.0055 ± 0.00071 | -0.003 ± 0.0042 | -0.0005 ± 0.00071 | 0.0035 ± 0.015 | -0.002 ± 0.013 | -0.0005 ± 0.0078 | -0.002 ± 0.0042 | -0.0005 ± 0.0035 | -0.007 ± 0.0071 |
| BF4T:tPA | -0.0965 ± 0.035 | -0.12 ± 0.026 | -0.11 ± 0.029 | -0.003 | 0.0005 ± 0.0064 | 0.0105 ± 0.022 | 0.0005 ± 0.023 | -0.015 ± 0.0028 | 0.0405 ± 0.0078 | 0.0575 ± 0.033 | 0.0185 ± 0.019 | -0.0155 ± 0.015 | 0.0015 ± 0.032 | 0.012 ± 0.0057 | -0.0045 ± 0.028 | -0.0525 ± 0.0021 | -0.0465 ± 0.016 | -0.011 ± 0.014 | -0.024 ± 0.0057 | -0.025 ± 0.0085 |
| BF4T:uPA | -0.0175 ± 0.0078 | -0.0195 ± 0.012 | -0.0135 ± 0.013 | -0.009 ± 0.0085 | -0.012 | 0.0045 ± 0.005 | -0.0095 ± 0.00071 | -0.014 ± 0.0085 | -0.0025 ± 0.011 | -0.0005 ± 0.0078 | 0.0035 ± 0.022 | -0.013 ± 0.031 | -0.012 ± 0.013 | -0.008 ± 0.0028 | 0.012 ± 0.0085 | 0.0055 ± 0.00071 | 0.0175 ± 0.0092 | -0.005 ± 0.0042 | -0.0035 ± 0.0092 | -0.0035 ± 0.012 |
| BT:B cell Proliferation | -0.0145 ± 0.0021 | -0.0385 ± 0.0035 | -0.121 ± 0.0064 | -0.009 ± 0.034 | -0.0165 ± 0.013 | -0.006 ± 0.0099 | 0.0085 ± 0.011 | 0.023 ± 0.0042 | -0.239 ± 0.0085 | -0.256 ± 0.011 | -0.248 ± 0.0035 | 0.01 ± 0.014 | -0.01 ± 0.02 | -0.007 ± 0.0014 | 0.016 ± 0.016 | 0.0415 ± 0.005 | 0.0475 ± 0.033 | -0.029 ± 0.024 | -0.007 ± 0.038 | -0.0195 ± 0.052 |
| BT:PBMC Cytotoxicity | 0.0065 ± 0.049 | 0.001 ± 0.02 | -0.009 ± 0.025 | 0.0095 ± 0.0078 | -0.0025 ± 0.0064 | 0.0225 ± 0.021 | -0.0015 ± 0.0021 | 0.023 ± 0.0028 | -0.083 ± 0.016 | -0.095 ± 0.0099 | -0.0905 ± 0.023 | -0.007 ± 0.0014 | 0.0035 ± 0.022 | 0.0055 ± 0.044 | 0.006 ± 0.018 | 0.0115 ± 0.005 | 0.0505 ± 0.018 | 0.0065 ± 0.0092 | -0.0145 ± 0.011 | -0.0595 ± 0.011 |
